The results in this text go back to patent EP4790066A1, “GLP-1R/GIPR/GCGR TRIPLE AGONIST ANALOGUE AND USE THEREOF” (Shenzhen Bay Laboratory, priority 2023, dated 2025).

Read-outs that look alike come from different tables or passages of the source. *1 amine or outer side, *2 acyl side, *3 side chain or, on linkers, in order; H or OH if unused. Where a SMILES comes first, the peptide text is derived from it. Bridges are numbered along the chain shown (N, C = ends). [ ]: non-standard residue; d: D form. X1 = O=C(O)CCCCCCCCCCCCCCCCCCC(=O)N[C@@H](CCCCNC(=O)COCCOCCNC(=O)COCCOCCNC(=O)CCC(=O)N(CCNC(=O)C[*:1])CCNC(=O)C[*:2])C(=O)O; Phe(2-F) = N[C@@H](Cc1ccccc1F)C(=O)O; Iva = CC[C@](C)(N)C(=O)O; Aib = CC(C)(N)C(=O)O

The target of data set [1] is T1, GIPR (Homo sapiens, UniProt P48546).
T1 construct: expressed in transfected cells
T1 sequence (P48546 22-466): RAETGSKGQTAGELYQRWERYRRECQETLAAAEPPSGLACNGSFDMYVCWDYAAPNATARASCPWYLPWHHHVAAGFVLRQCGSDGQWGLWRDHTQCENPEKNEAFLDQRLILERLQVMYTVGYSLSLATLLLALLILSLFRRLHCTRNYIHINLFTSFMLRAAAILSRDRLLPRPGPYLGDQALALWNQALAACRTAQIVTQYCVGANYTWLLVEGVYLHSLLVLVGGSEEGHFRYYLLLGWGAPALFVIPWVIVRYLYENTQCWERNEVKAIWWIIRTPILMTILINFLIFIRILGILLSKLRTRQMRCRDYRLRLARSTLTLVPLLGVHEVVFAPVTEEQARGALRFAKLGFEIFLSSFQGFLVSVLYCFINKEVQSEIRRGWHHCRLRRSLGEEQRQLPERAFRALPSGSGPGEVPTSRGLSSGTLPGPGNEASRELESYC
Kind of data set: cAMP method (HTRF cAMP detection kit), HEK293/pGM-CREB-L-Luc/GIP pool. Format: cell-based. Particulars: read-out: EC50 (pM) for each receptor GIPR.

The target of data set [2] is T2, GLP-1R (Homo sapiens, UniProt P43220).
T2 construct: expressed in transfected cells
Kind of data set: cell-based. It is filed as cell-based. Particulars: for EC50: GLP-1R CreLuc. As for the experimental part:
The steps are as follows:
The stably transfected cell line HEK293/pGM-CREB-L-Luc/GLP-1R pool was constructed. […] The corresponding test cells were selected, digested (for 1 min), dispersed by pipetting, and centrifuged (1000 rpm, 5 min). The culture medium was discarded, and the cells were suspended using Freestyle culture medium, centrifuged and counted. The cells were diluted to a cell density of 5 x 10^5 cells/mL using freestyle culture medium (0% FBS) and culture medium containing 10% FBS, respectively. The cells were then added to the detection wells of a 384-well plate (40 µL/20,000 cells/well). Echo was used to add the corresponding analyte dilution series. The cell plate was incubated at 37°C and 5% CO2 for 6 h, and then ONE-GLO (20 µL/well) was added for detection. It was kept in the dark for 3 min, and then a chemiluminescent microplate reader was used for determination. The plate was read within 30 min, and the determination results were recorded. […]

Data set [3] can be described thus: in vivo. More on the design: species or system male SD rats. Particulars: rat. On the procedure:
The pharmacokinetic behavior of target peptide derivatives (or polypeptide derivatives) prepared in Example 1 and Example 2, i.e., TG1-TG94 in rodents was tested. The specific steps are as follows:
The target peptide derivatives (TG1-TG94) to be tested were administered to male SD rats via subcutaneous injection (SC, 3 mg/kg; drug vehicle: PBS, concentration: 1.5 mg/mL; administration volume: 2 mL) and intravenous injection (IV, 1 mg/kg; drug vehicle: PBS, concentration: 0.5 mg/mL; administration volume: 2 mL) as a single dose, respectively. Whole blood samples were collected from the jugular vein or other appropriate vein at the following time points after administration: for SC, 15 min, 30 min, 1 h, 2 h, 4 h, 6 h, 8 h, 24 h, 48 h, 72 h, 96 h, 120 h, and 168 h; for IV, 5 min, 15 min, 30 min, 1 h, 2 h, 4 h, 8 h, 24 h, 48 h, 72 h, 96 h, 120 h, and 168 h. 0.2 mL of blood was collected and transferred into a labeled EDTA-K2 anticoagulant tube. The tube was gently inverted to ensure thorough mixing of the anticoagulant (EDTA-K2) with the blood and immediately placed on wet ice. Plasma separation was performed as soon as possible by centrifugation under the following conditions: 4°C, 6800xg, for 6 min. The plasma samples were stored in a refrigerator at no higher than -20°C and used for analysis when needed.
Under the condition of yellow light in an ice-water bath, except for blank samples, 300 µL of precipitant containing an internal standard was added to a 96-well plate containing 20 µL of standard curve sample, quality control sample, or unknown sample; 300 µL of acetonitrile was added to the blank sample. The mixture was vortexed, mixed well, and then centrifuged. 150 µL of the supernatant after centrifugation was transferred to a new 96-well plate, and 150 µL of ultrapure water was added and mixed well. The above samples were subjected to quantitative analysis using LC-MS analysis with XB-C18 (2.1 * 100 mm, 3 µm) chromatography for gradient elution. The mobile phases used were: mobile phase A = 0.1% formic acid-water; mobile phase B = acetonitrile. Phoenix WinNonlin software was used to calculate the pharmacokinetic parameters. […] Table 5A: Pharmacokinetic parameters of target peptide derivatives

T2 sequence (P43220 24-463, species assumed): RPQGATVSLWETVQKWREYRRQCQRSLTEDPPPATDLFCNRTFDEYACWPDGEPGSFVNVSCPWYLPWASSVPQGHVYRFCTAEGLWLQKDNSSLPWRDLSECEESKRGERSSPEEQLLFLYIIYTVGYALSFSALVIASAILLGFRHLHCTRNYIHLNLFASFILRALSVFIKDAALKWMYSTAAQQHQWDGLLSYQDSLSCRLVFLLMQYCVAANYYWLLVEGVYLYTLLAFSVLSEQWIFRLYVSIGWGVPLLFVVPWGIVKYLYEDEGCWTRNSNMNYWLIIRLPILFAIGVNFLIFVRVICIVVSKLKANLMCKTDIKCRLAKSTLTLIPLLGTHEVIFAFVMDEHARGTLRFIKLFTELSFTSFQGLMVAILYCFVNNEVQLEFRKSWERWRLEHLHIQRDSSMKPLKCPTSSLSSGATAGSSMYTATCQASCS

With `CC[C@H](C)[C@@H]1NC(=O)[C@H](Cc2ccccc2)NC(=O)[C@@H](NC(=O)C(C)(C)NC(=O)[C@H](CCC(N)=O)NC(=O)[C@H](C)NC(=O)[C@H](CCCCNC(C)=O)NC(=O)[C@H](CCCCN)NC(=O)[C@H](CC(=O)O)NC(=O)[C@H](CC(C)C)NC(=O)[C@](C)(CC)NC(=O)[C@@H](NC(=O)[C@H](CO)NC(=O)[C@H](Cc2ccc(O)cc2)NC(=O)[C@H](CC(=O)O)NC(=O)[C@H](CO)NC(=O)[C@@H](NC(=O)[C@H](Cc2ccccc2F)NC(=O)[C@@H](NC(=O)CNC(=O)[C@H](CCC(N)=O)NC(=O)C(C)(C)NC(=O)[C@@H](N)Cc2ccc(O)cc2)[C@@H](C)O)[C@@H](C)O)[C@@H](C)CC)CSCC(=O)NCCN(C(=O)CCC(=O)NCCOCCOCC(=O)NCCOCCOCC(=O)NCCCC[C@H](NC(=O)CCCCCCCCCCCCCCCCCCC(=O)O)C(=O)O)CCNC(=O)CSC[C@@H](C(=O)NCC(=O)NCC(=O)N2CCC[C@H]2C(=O)N[C@@H](CO)C(=O)N[C@@H](CO)C(=O)NCC(=O)N[C@@H](C)C(=O)N2CCC[C@H]2C(=O)N2CCC[C@H]2C(=O)N2CCC[C@H]2C(=O)N[C@@H](CO)C(N)=O)NC(=O)[C@H](CC(C)C)NC(=O)[C@H](CC(C)C)NC(=O)[C@H](Cc2ccc(O)cc2)NC(=O)[C@H](CCC(=O)O)NC1=O` [TG52] (H-Y[Aib]QGT[Phe(2-F)]TSDYSI[Iva]LDKK(Ac)AQ[Aib]CFIEYLLCGGPSSGAPPPS-NH2; linker 21-28 via X1), the EC50 in data set [1] is 3.8 pM. Besides, the “serum albumin binding capacity” value in data set [2] is on record as “a stronger serum albumin binding capacity”. In data set [2] (EC50 (pM) 10% FBS, 10% FBS), this compound returned an EC50 of 861 pM. Also, the EC50 in data set [2] (0% FBS, read-out: EC50 (pM) 0% FBS) was determined as 13.1 pM. In data set [3] (male, SD, iv, 1 mg/kg), the AUC(0-inf) was determined as 289 µg·h/mL, the AUC(0-t) stood at 265 µg·h/mL, the MRT stood at 26.5 h and the Vd was found to be 0.092 L/kg. In data set [3] (male, SD, iv, 1 mg/kg), this compound had a clearance of 3.48 mL/h/kg and a half-life of 21.5 h. The compound also displayed a bioavailability in data set [3] (male, SD, sc) of 50.9%. In addition, in data set [3] (male, SD, sc, 3 mg/kg), the AUC(0-inf) was 570 µg·h/mL, the area under the curve AUC(0-t) stood at 410 µg·h/mL, the CL/F is 5.26 mL/h/kg and the concentration peaked (Cmax) at 8210 ng/mL. In data set [3] (male, SD, sc, 3 mg/kg), the MRT is 42.8 h, the Tmax came out at 24 h and the half-life was 26.4 h. Further, in data set [3] (iv, 1 mg/kg), the “AUC0-t /AUC0-inf” value was 0.918 and the Kel was 0.0323 h⁻¹. Also, in data set [3] (sc, 3 mg/kg), the “AUC0-t /AUC0-inf” value is recorded as 0.834 and the Vz/F was 0.200 L/kg.

Usually EC50 stands for the midpoint of the concentration-response curve. As usually defined, the AUC(0-inf) is the area under the concentration-time curve extrapolated to infinity. Usually AUC(0-t) stands for the area under the concentration-time curve up to a stated or last time point. Broadly, the MRT is a mean duration of stay, worked out from the concentration-time curve. As usually defined, the Vd is a proportionality between amount in the body and measured concentration, not a real space. High values mean wide distribution into tissue, low ones little distribution into tissue. In general, clearance refers to a measure of how efficiently the substance is removed, as volume per time. Lower therefore signals inefficient removal. Usually half-life stands for the time needed for the level to fall by half in the phase considered. As a reminder, the bioavailability is dose-corrected exposure relative to a reference, in per cent. As usually defined, the CL/F is clearance divided by bioavailability, as obtained after extravascular dosing. What is called Cmax is the peak of the concentration-time curve. As usually defined, the Tmax is the time from dosing to the highest level.
